Assay results published in patent US9890429B2, “Compositions, kits, and methods for the identification, assessment, prevention, and therapy of cancer” (Dana-Farber Cancer Institute, Inc., priority 2012, dated 2018).

What was measured:
DLBCL cell lines [1] = experiment: Proliferation of DLBCL cell lines after chemical CDK inhibition (alamarBlue assay); format: cell-based, human
Experimental: The identities of the DLBCL cell lines used in this study were confirmed via STR profiling (PowerPlex®1.2 system [Promega]) and the online verification services of the cell banks JCRB and DSMZ (available on the World Wide Web at cellbank.nibio.go.jp/cellbank_e.html and dsmz.de/STRanalysis). All DLBCL cell lines were cultured at 37° C. in 5% C02. SU-DHL-6, SU-DHL-7, DB and Toledo were propagated in RPMI; OCI-Ly3, OCI-Ly18 and OCI-Ly19 were grown in IMDM. HEK293T cells for lentiviral production were cultured in DMEM. All media were supplemented with 10 mM HEPES buffer, 2 mM L-glutamine, 50 U/mL penicillin, 50 U/mL streptomycin and 10% heat-inactivated fetal calf serum (Invitrogen). To ensure that cells were in logarithmic growth phase, cells were diluted to 200,000 cells/ml 48 h prior to any experiment.
The pan-CDK inhibitor, flavopiridol (Selleck Chemicals, Houston, USA), was suspended in DMSO (10 mM stock solution) and stored at −20° C. until use. Following treatment, proliferation of DLBCL cell lines was assessed with the alamarBlue assay (Invitrogen, Carlsbad, Calif.).

DLBCL cell lines [2] = experiment: Cell cycle analysis (Hoechst 33342, flow cytometry); format: cell-based, human; conditions: 72 hr treatment
Experimental: Cells were re-suspended in 1 ml of growth medium supplemented with 10 μg/ml Hoechst 33342 (Molecular Probes, Invitrogen) as final concentration. After 60 min at 37° C. in the dark. Analysis was performed on a FACSCAriallu cytometer (BD Biosciences) using the UV laser 350 nm with 20 mW. The cell cycle was plotted as histogram after excluding doublets.
Cell cycle analysis was performed at 72 h using Hoechst 33342 (Supplemental Methods) and a FACSCAriaIIu cytometer (BD Biosciences) with a UV laser at 350 nm with 20 mW.

DLBCL cell lines [3] = experiment: Apoptosis (Annexin V/7-AAD staining, subG1 peaks); format: cell-based, human; conditions: subG1 peaks and Annexin V/7-AAD staining, 72 hr treatment
Experimental: Cellular apoptosis was analyzed with an APC AnnexinV/7ADD Apoptosis Detection kit (BD Pharmingen). AnnexinV/7AAD plots and cell cycle graphics were generated using FlowJo software V7.6.1 for Windows (Tree Star).

[4] = test system: RB1 phosphorylation (pS780 and pT821); conditions: DLBCL cell lines; 24 hr treatment
Experimental: For SDS-PAGE, total cell lysates were obtained using NP-40 lysis buffer (Tris-HCl 50 mM pH7.4, NaCl 150 mM, NaF 5 mM, EDTA 5 mM, 1% NP-40) supplemented with 1 mM activated Na3VO4 and complete proteinase inhibitor cocktail (Roche). […] After washing, membranes were probed against the indicated antigens following the manufacturer's recommendation. […] For chemoluminescence detection, enhanced ECL (GE Healthcare, Piscataway, N.J.) was used. After stripping, membranes were re-probed for GAPDH (1:3000, Santa Cruz Biotechnology) as loading control.

[5] = test system: luciferized mCherry+ (Toledo, Ly4 or Ly1) DLBCL cells xenotransplanted in NSG mice; experiment: In vivo efficacy in DLBCL xenografts (bioluminescence, flow cytometry, immunohistochemistry); design: species or system mouse; conditions: multiple DLBCL xenograft models in NSG mice, 7.5 mg/kg daily IP vs vehicle

CN1CC[C@H](c2c(O)cc(O)c3c(=O)cc(-c4ccccc4Cl)oc23)[C@H](O)C1 [flavopiridol]
sensitivity of proliferation to lower doses (DLBCL cell lines [1]; DHL7, DLBCL cell line with single copy RB1 loss, lower doses): less sensitive
cellular proliferation (DLBCL cell lines [1]; DLBCL cell lines with decreased or absent p53 activity and CNAs of cell cycle components, nanomolar doses, 1-4 days): decreased the cellular proliferation
cell cycle (S phase, arrest) (DLBCL cell lines [2]): decreased S phase and induced cell cycle arrest
apoptosis (DLBCL cell lines [3]): increased apoptosis
phosphorylation of RB1 at CDK4/6 and CDK2-specific sites (pS780 and pT821) [4]: decreased the phosphorylation of RB1
lymphoma infiltration of bone marrow and spleen [5]: significantly reduced
tumor growth ([5]; bioluminescence): significantly reduced tumor growth
